Measured values: publication PMC10184313, “Inhibition of Thiamine Diphosphate-Dependent Enzymes by Triazole-Based Thiamine Analogues” (ACS Medicinal Chemistry Letters, 2023)

Target: T1, A. viridans PO (Aerococcus viridans, UniProt A9X9K8)
T1 sequence (A9X9K8 1-592): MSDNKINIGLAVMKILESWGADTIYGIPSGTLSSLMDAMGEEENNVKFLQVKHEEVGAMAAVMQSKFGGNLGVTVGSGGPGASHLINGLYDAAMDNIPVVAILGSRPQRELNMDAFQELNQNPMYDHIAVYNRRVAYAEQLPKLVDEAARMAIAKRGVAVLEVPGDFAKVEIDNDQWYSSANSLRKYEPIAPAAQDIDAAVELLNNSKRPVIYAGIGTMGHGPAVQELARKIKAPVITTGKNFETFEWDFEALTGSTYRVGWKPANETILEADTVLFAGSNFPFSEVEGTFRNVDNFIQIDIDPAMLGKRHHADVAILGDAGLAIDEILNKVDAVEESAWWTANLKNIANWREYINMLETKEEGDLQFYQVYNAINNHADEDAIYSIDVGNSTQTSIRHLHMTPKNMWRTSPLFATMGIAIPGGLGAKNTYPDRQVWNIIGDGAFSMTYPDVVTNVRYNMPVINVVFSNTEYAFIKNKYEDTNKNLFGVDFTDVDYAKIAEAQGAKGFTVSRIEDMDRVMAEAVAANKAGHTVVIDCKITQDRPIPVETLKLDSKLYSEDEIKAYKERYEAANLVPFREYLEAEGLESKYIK
Experiment: A. viridans PO inhibitory activity assay (quinoneimine dye)
Format: biochemical
Conditions: [Compound] = 250 μM, [ThDP] = 50 μM
Experimental: A. viridans PO inhibitory activity assay. A. viridans PO and horseradish peroxidase were purchased from Sigma. A. viridans PO activity was determined by monitoring appearance of quinoneimine dye at 550 nm using a microplate reader (CLARIOstar) and conducted as described 1 with some modifications.
The percentage inhibition of compounds against A. viridans PO was assayed at a final concentration of 250 µM. The reaction buffer (50 mM KH 2PO4 and 10 mM MgCl 2, pH 5.9) contained 50 µM ThDP (or 125 µM in the competition assay), 10 µM flavin adenine dinucleotide (FAD), 0.15% 4-Aminoantipyrine, 0.3% N-Ethyl-N-(2-hydroxy-3-sulfopropyl)-m-toluidine (EHSPT), 50 µg/mL horseradish peroxidase and 0.35 U/mL A. viridans PO. The reaction mixture was preincubated at 37 °C for 30 min, then reaction was initiated by adding pyruvate to a final concentration of 50 mM. To determine the IC 50, inhibitor concentration was varied (2-1000 µM) with ThDP concentration at 50 µM. 1 unit of PO activity is defined as 1 μmol of hydrogen peroxide produced per minute. The enzyme IC 50 values were calculated as described for the PDHc E1 assay. […]

Compound | Inhibition (%) PO [%]
Cc1ncc(Cn2cc(CCCC(=O)NO)nn2)c(N)n1 [Compound 24b] | 35 ± 5
COc1cccc(C(=O)NCCc2cn(Cc3cnc(C)nc3N)nn2)c1 [Compound 21a] | < 20
Cc1ncc(Cn2cc(CCCCC(=O)NO)nn2)c(N)n1 [Compound 24c] | 42 ± 5
Cc1ncc(Cn2cc(CCCCn3cc(-c4ccc(F)cc4)nn3)nn2)c(N)n1 [Compound 16c] | < 20
COc1ccc(-c2cn(CCCc3cn(Cc4cnc(C)nc4N)nn3)nn2)cc1 [Compound 17b] | < 20
COc1ccccc1C(=O)NCCCCc1cn(Cc2cnc(C)nc2N)nn1 [Compound 22c] | < 20
Cc1ncc(Cn2cc(CCCC(=O)Nc3ccccc3N)nn2)c(N)n1 [Compound 26b] | < 20
Cc1ncc(Cn2cc(CCNC(=O)c3cccc(C#N)c3)nn2)c(N)n1 [Compound 20a] | < 20
Cc1ncc(Cn2cc(CCCn3cc(-c4ccc(F)cc4)nn3)nn2)c(N)n1 [Compound 16b] | < 20
COc1ccccc1C(=O)NCCCc1cn(Cc2cnc(C)nc2N)nn1 [Compound 22b] | < 20

Same assay, conditions: [ThDP] 50 μM

Compound | IC50 [µM]
Cc1ncc(Cn2cc(CCCC(=O)NO)nn2)c(N)n1 [Compound 24b] | 202 ± 19
Cc1ncc(Cn2cc(CCCCC(=O)NO)nn2)c(N)n1 [Compound 24c] | 232 ± 23

Same assay, conditions: determined according to the KM for ThDP

Compound | Ki [µM]
Cc1ncc(Cn2cc(CCCC(=O)NO)nn2)c(N)n1 [Compound 24b] | 20.2
Cc1ncc(Cn2cc(CCCCC(=O)NO)nn2)c(N)n1 [Compound 24c] | 23.2

Same assay, conditions: increased ThDP: [Compound] = 250 μM, [ThDP] = 125 μM

Compound | Inhibition (%) PO [%]
Cc1ncc(Cn2cc(CCCC(=O)NO)nn2)c(N)n1 [Compound 24b] | 27 ± 4
Cc1ncc(Cn2cc(CCCCC(=O)NO)nn2)c(N)n1 [Compound 24c] | 24 ± 4
Cc1ncc(Cn2cc(CCCCn3cc(-c4ccc(F)cc4)nn3)nn2)c(N)n1 [Compound 16c] | <20
COc1ccc(-c2cn(CCCc3cn(Cc4cnc(C)nc4N)nn3)nn2)cc1 [Compound 17b] | <20
Cc1ncc(Cn2cc(CCCn3cc(-c4ccc(F)cc4)nn3)nn2)c(N)n1 [Compound 16b] | <20

Target: T2, S. cerevisiae PDC (Saccharomyces cerevisiae, UniProt P06169)
T2 construct: purchased Sigma
T2 sequence (P06169 2-563 limits assumed): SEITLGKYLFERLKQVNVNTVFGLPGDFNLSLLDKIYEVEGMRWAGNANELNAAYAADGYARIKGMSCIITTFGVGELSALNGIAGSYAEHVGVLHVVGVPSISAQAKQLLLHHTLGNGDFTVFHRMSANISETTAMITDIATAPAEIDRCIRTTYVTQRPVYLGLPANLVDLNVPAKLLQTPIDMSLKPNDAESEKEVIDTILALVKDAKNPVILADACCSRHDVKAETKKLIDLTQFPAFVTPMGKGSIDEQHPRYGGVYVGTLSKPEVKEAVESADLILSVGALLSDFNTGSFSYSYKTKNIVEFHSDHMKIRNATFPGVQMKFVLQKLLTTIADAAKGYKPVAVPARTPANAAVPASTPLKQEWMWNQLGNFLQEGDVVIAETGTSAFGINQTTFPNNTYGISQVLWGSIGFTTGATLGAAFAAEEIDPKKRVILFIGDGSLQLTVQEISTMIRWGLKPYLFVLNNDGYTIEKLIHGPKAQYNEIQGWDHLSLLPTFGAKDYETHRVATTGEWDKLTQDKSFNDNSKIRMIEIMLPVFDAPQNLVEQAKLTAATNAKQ
Experiment: S. cerevisiae PDC inhibitory activity assay (DCPIP reduction)
Format: biochemical
Conditions: [Compound] = 1.5 mM, [ThDP] = 0.3 mM; compounds insufficiently soluble were excluded
Experimental: S. cerevisiae PDC inhibitory activity assay. S. cerevisiae PDC was purchased from Sigma. Its activity was determined by monitoring DCPIP reduction at 600 nm using a microplate reader (CLARIOstar) and conducted as described 1,2 with some modifications. The percentage inhibition of compounds was assayed at a final concentration of 1500 µM. The reaction buffer (50 mM KH 2PO4 and 1 mM MgCl 2, pH 7) contained 300 µM ThDP (or 750 µM in the competition assay), 0.27 mM DCPIP, and 0.15 mg/ml S. cerevisiae PDC. The reaction mixture was preincubated at 37 °C for 60 min, then reaction was initiated by adding pyruvate to a final concentration of 70 mM. Specific activity was calculated using the molar extinction coefficient of DCPIP, 21 mM -1 cm -1.3 […]

Compound | Inhibition (%) Yeast PDC
Cc1ncc(Cn2cc(CCCCn3cc(-c4ccc(F)cc4)nn3)nn2)c(N)n1 [Compound 16c] | Insoluble
COc1ccc(-c2cn(CCCc3cn(Cc4cnc(C)nc4N)nn3)nn2)cc1 [Compound 17b] | Insoluble
COc1ccccc1C(=O)NCCCCc1cn(Cc2cnc(C)nc2N)nn1 [Compound 22c] | Insoluble
Cc1ncc(Cn2cc(CCCn3cc(-c4ccc(F)cc4)nn3)nn2)c(N)n1 [Compound 16b] | Insoluble
COc1ccccc1C(=O)NCCCc1cn(Cc2cnc(C)nc2N)nn1 [Compound 22b] | Insoluble

Same assay, conditions: [Compound] = 1.5 mM, [ThDP] = 0.3 mM; compounds insufficiently soluble were excluded; read-out: Inhibition (%) Yeast PDC

Compound | inhibition at 1500 µM [%]
Cc1ncc(Cn2cc(CCCC(=O)NO)nn2)c(N)n1 [Compound 24b] | 65 ± 2
COc1cccc(C(=O)NCCc2cn(Cc3cnc(C)nc3N)nn2)c1 [Compound 21a] | 48 ± 2
Cc1ncc(Cn2cc(CCCCC(=O)NO)nn2)c(N)n1 [Compound 24c] | 63 ± 4
Cc1ncc(Cn2cc(CCCC(=O)Nc3ccccc3N)nn2)c(N)n1 [Compound 26b] | 28 ± 3
Cc1ncc(Cn2cc(CCNC(=O)c3cccc(C#N)c3)nn2)c(N)n1 [Compound 20a] | < 20

Same assay, conditions: increased ThDP: [Compound] = 1500 μM, [ThDP] = 750 μM; compounds insufficiently soluble were excluded

Compound | Inhibition (%) Yeast PDC
Cc1ncc(Cn2cc(CCCCn3cc(-c4ccc(F)cc4)nn3)nn2)c(N)n1 [Compound 16c] | Insoluble
COc1ccc(-c2cn(CCCc3cn(Cc4cnc(C)nc4N)nn3)nn2)cc1 [Compound 17b] | Insoluble
Cc1ncc(Cn2cc(CCCn3cc(-c4ccc(F)cc4)nn3)nn2)c(N)n1 [Compound 16b] | Insoluble

Same assay, conditions: increased ThDP: [Compound] = 1500 μM, [ThDP] = 750 μM; compounds insufficiently soluble were excluded; read-out: Inhibition (%) Yeast PDC

Compound | inhibition at 1500 µM [%]
Cc1ncc(Cn2cc(CCCC(=O)NO)nn2)c(N)n1 [Compound 24b] | 42 ± 4
Cc1ncc(Cn2cc(CCCCC(=O)NO)nn2)c(N)n1 [Compound 24c] | 37 ± 4

Target: T3, porcine PDHc E1 (Sus scrofa, UniProt P29804)
T3 sequence (P29804 31-390): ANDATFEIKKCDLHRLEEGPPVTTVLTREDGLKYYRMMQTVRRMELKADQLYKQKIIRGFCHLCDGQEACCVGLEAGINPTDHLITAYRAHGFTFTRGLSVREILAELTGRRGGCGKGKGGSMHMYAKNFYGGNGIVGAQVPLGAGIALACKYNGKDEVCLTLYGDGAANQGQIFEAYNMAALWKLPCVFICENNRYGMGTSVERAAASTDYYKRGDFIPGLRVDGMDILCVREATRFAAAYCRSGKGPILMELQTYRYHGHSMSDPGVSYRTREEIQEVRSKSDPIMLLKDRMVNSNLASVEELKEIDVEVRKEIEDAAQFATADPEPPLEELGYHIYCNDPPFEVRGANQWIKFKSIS
Experiment: PDHc E1 inhibitory activity assay (DCPIP reduction)
Format: biochemical
Conditions: [Compound] = 250 μM, [ThDP] = 50 μM
Experimental: Enzyme assays – Methods and Results S1
Ligand efficiencies – Calculations S3 […]
Enzyme assays (Methods and Results)
PDHc E1 inhibitory activity assay. Porcine PDHc E1 was purchased from Sigma. Its activity was […]
determined by monitoring 2,6-dichlorophenolindophenol (DCPIP) reduction at 600 nm using a […]
microplate reader (CLARIOstar) and conducted as described 1,2 with some modifications. The percentage inhibition of compounds against porcine PDHc E1 was assayed at a final concentration of 250 µM. The reaction buffer (50 mM KH 2PO4 and 1 mM MgCl 2, pH 7) contained 50 µM ThDP (or 125 µM in the competition assay), 0.25 mM DCPIP, and 2 mg/ml porcine PDHc E1. The reaction mixture […]
was preincubated at 37 °C for 30 min, then the reaction was initiated by adding pyruvate to a final […]
concentration of 50 mM. To determine the half-maximal inhibitory concentration (IC 50 ), ThDP […]
concentration was lowered to 10 µM, and inhibitor concentration was varied (0.4-200 µM). Specific […]
activity was calculated using the molar extinction coefficient of DCPIP, 21 mM -1 cm-1.3 The enzyme […]
IC50 values were calculated from non-linear regression curve fitting using GraphPad Prism.

Compound | Inhibition (%) PDHc E1 [%]
Cc1ncc(Cn2cc(CCCC(=O)NO)nn2)c(N)n1 [Compound 24b] | > 90
COc1cccc(C(=O)NCCc2cn(Cc3cnc(C)nc3N)nn2)c1 [Compound 21a] | 67 ± 4
Cc1ncc(Cn2cc(CCCCC(=O)NO)nn2)c(N)n1 [Compound 24c] | > 90
Cc1ncc(Cn2cc(CCCCn3cc(-c4ccc(F)cc4)nn3)nn2)c(N)n1 [Compound 16c] | > 90
COc1ccc(-c2cn(CCCc3cn(Cc4cnc(C)nc4N)nn3)nn2)cc1 [Compound 17b] | 71 ± 2
COc1ccccc1C(=O)NCCCCc1cn(Cc2cnc(C)nc2N)nn1 [Compound 22c] | 58 ± 2
Cc1ncc(Cn2cc(CCCC(=O)Nc3ccccc3N)nn2)c(N)n1 [Compound 26b] | 59 ± 2
Cc1ncc(Cn2cc(CCNC(=O)c3cccc(C#N)c3)nn2)c(N)n1 [Compound 20a] | 46 ± 4
Cc1ncc(Cn2cc(CCCn3cc(-c4ccc(F)cc4)nn3)nn2)c(N)n1 [Compound 16b] | 66 ± 4
COc1ccccc1C(=O)NCCCc1cn(Cc2cnc(C)nc2N)nn1 [Compound 22b] | 58 ± 3

Same assay, conditions: binding energy in kcal mol^–1 derived from the KI value per heavy atom

Compound | L.E. (ligand efficiency) PDHc E1
Cc1ncc(Cn2cc(CCCC(=O)NO)nn2)c(N)n1 [Compound 24b] | 0.50
Cc1ncc(Cn2cc(CCCCC(=O)NO)nn2)c(N)n1 [Compound 24c] | 0.48

Same assay, conditions: increased ThDP: [Compound] = 250 μM, [ThDP] = 125 μM

Compound | Inhibition (%) PDHc E1 [%]
Cc1ncc(Cn2cc(CCCC(=O)NO)nn2)c(N)n1 [Compound 24b] | 70 ± 3
Cc1ncc(Cn2cc(CCCCC(=O)NO)nn2)c(N)n1 [Compound 24c] | 73 ± 4
Cc1ncc(Cn2cc(CCCCn3cc(-c4ccc(F)cc4)nn3)nn2)c(N)n1 [Compound 16c] | 79 ± 2
COc1ccc(-c2cn(CCCc3cn(Cc4cnc(C)nc4N)nn3)nn2)cc1 [Compound 17b] | 45 ± 3
Cc1ncc(Cn2cc(CCCn3cc(-c4ccc(F)cc4)nn3)nn2)c(N)n1 [Compound 16b] | 43 ± 2
